Results: patent US8937039B2, “Peptide-based peroxidase inhibitors and methods of using same” (The Medical College of Wisconsin, Inc., priority 2009, dated 2015)
Entries after “also recorded” stand apart in the source; their conditions may differ. Residues, ends and D or L forms follow the SMILES beside them.

Key:
[1] = biological target: T1, MPO (Homo sapiens, UniProt P05164); assay: MPO-mediated LDL oxidation (conjugated diene formation, 234 nm); format: biochemical; parameters: purchased Lee Biosolutions (St. Louis, Mo.); conditions: 25 μM; for MPO/H2O2/nitrite-mediated LDL oxidation (in words): H2O2 100 μM, NaNO2 100 μM; for MPO/H2O2-mediated LDL oxidation in the absence of nitrite (in words): without NaNO2
T1 sequence (P05164 49-745): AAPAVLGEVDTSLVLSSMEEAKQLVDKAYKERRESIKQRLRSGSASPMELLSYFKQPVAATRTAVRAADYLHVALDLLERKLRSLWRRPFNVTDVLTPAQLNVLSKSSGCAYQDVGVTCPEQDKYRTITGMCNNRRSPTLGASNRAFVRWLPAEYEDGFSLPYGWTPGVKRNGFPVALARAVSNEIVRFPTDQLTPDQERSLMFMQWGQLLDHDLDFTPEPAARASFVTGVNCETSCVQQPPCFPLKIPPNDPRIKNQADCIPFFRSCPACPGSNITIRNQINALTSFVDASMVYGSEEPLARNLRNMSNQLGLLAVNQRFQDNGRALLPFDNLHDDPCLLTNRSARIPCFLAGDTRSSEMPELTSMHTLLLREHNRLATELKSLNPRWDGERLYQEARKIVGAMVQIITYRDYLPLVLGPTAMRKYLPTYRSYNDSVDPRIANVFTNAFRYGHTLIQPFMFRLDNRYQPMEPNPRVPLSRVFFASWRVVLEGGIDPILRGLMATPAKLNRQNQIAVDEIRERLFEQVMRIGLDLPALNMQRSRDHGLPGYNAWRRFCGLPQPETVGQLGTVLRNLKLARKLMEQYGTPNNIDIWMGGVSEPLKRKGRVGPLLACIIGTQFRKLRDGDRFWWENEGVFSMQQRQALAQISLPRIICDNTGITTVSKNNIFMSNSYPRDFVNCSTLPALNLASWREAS
Protocol: MPO-mediated oxidation of LDL. […] LDL oxidation was monitored at 234 nm at room temperature on a HP UV/VIS spectrometer. Absorbance traces represent the average of duplicate experiments.
MPO-mediated LDL Oxidation. […] Rates of LDL oxidation were monitored at room temperature at 234 nm, the wavelength maximum for conjugated dienes.
MPO-mediated LDL Conjugated Diene Formation: Reaction mixtures contained LDL (0.15 mg/mL), NaNO2 (100 μM), H2O2 (100 μM), MPO (20 nM) and increasing concentrations of KYC or equimolar concentrations of various compounds in a phosphate buffer (100 mM, pH 7.4) containing DTPA (100 μM). Rates of LDL conjugated diene formation were determined by following changes in absorbance at 234 nm, the wavelength maximum for conjugated dienes, on a UV-Vis spectrophotometer (Agilent Model 8453) at room temperature.

[2] = biological target: T1, MPO; assay: MPO-catalyzed HOCl production (taurine/TMB assay); format: biochemical; parameters: purchased Lee Biosolutions (St. Louis, Mo.); conditions: for Effect on MPO HOCl production at equimolar concentration (in words): 12.5 μM; for Dose-dependent effect on MPO-catalyzed HOCl production (in words): increasing concentrations, FIG. 14C/14D
Protocol: MPO-mediated HOCl Production. MPO (20 nM) was incubated with H2O2 (50 μM), NaCl (150 mM), taurine (5 mM) and increasing concentrations of KYC in phosphate buffer (100 mM, pH 7.4) which also contained diethylene triamine pentaacetic acid (DTPA, 100 μM) to prevent non-specific, divalent metal cation oxidation for 30 min. Reactions were halted by addition of catalase. Chlorotaurine was quantified using the 3,3-,5,5-tetramethylbenzidine (TMB) assay. Briefly, 400 μL of reaction solution was mixed with 100 μL of 2 mM TMB, 100 μM NaI containing 10% dimethylformamide (DMF) in 400 mM acetate buffer (pH 5.4). After 5 min, absorbance (650 nm) was recorded on a UV/Vis spectrophotometer (Agilent Model 8453).
MPO-catalyzed HOCl Production: MPO (20 nM) was incubated with H2O2 (50 μM), NaCl (150 mM), taurine (5 mM) and increasing concentrations of KYC in a phosphate buffer (100 mM, pH 7.4) containing diethylene triamine pentaacetic acid (DTPA, 100 μM) to prevent non-specific, divalent metal cation oxidation for 30 min. Reactions were halted by addition of catalase (2,000 units/mL). Chlorotaurine was quantified using the TMB assay (66). Briefly, 400 μL of reaction solution was mixed with 100 μL of 2 mM TMB, 100 μM NaI containing 10% dimethylformamide (DMF) in 400 mM acetate buffer (pH 5.4). After 5 min, absorbance (650 nm) was recorded on a UV/Vis spectrophotometer (Agilent Model 8453).

[3] = biological target: T1, MPO; conditions: reported, order of magnitude; cited from earlier work
[4] = tested on: SS/Mcw rat hearts; assay: Ischemia/reperfusion injury in isolated perfused hearts; conditions: FIG. 5B
Excerpt: Ischemia/Reperfusion (I/R) Injury in Isolated Hearts. Rats used in this study received humane care in compliance with the Guide for the Care and Use of Laboratory Animals, by the National Research Council. Rats were maintained on a low salt (0.4% NaCl) diet with unlimited access to water. Environmental influences were minimized by maintaining rats in identical housing conditions. Dahl S (SS/Mcw male rats at 8 weeks of age were used for this study.
Modified Krebs-Henseleit bicarbonate buffer was prepared containing the following components (in mM): 118.5 NaCl, 25.0 NaHCO3, 4.8 KCl, 1.2 MgSO4.6H2O, and 1.2 KH2PO4 (pH 7.4 when gassed with 95% O2-5% CO2) in which the calcium content was 1.8. Glucose (11.1 mM) was added to the perfusate. Before use, all perfusion fluids were filtered through cellulose acetate membranes with a pore size of 5 μm. To this perfusate, drugs (KAA, KYC) were added as needed. Animals were weighed, and heparin was administered intraperitoneally based on weight (150 IU/kg). Anesthesia was induced with pentobarbital sodium (30 mg/kg ip). […] Left ventricular pressure (LVP) was measured isovolumetrically with a transducer connected to a thin, saline-filled latex balloon inserted into the left ventricle through the mitral valve from an incision in the left atrium. […]

[5] = Solubility in aqueous buffers; format: physicochemical

Row | Compound | MPO/H2O2/nitrite-mediated LDL oxidation (in words) [1] | MPO/H2O2-mediated LDL oxidation in the absence of nitrite (in words) [1] | further results
1 | N[C@@H](Cc1c[nH]c2ccccc12)C(=O)O [Trp, tryptophan] | did not inhibit but actually enhanced | increased | Effect on MPO HOCl production at equimolar concentration (in words) [2]: effective inhibitor
2 | N[C@@H](CCC(=O)N[C@@H](CS)C(=O)NCC(=O)O)C(=O)O [GSH, glutathione] | ineffective | inhibited; also recorded: did not increase LDL oxidation | Rate of reaction with MPO/H2O2 systems [3]: 10 to 100 M⁻¹ s⁻¹
3 | CC(=O)N[C@@H](CCCCN)C(=O)N[C@@H](Cc1c[nH]c2ccccc12)C(=O)N[C@@H](CS)C(N)=O [KWC] (Ac-Lys-Trp-Cys-NH2) | – | – | Cardioprotection in SS/Mcw rat hearts (in words) [4]: increase cardioprotection
4 | N-acetyl Lysyltyrosylcyeteine amide [KYS] | accelerated LDL oxidation | – | Dose-dependent effect on MPO-catalyzed HOCl production (in words) [2]: failed to inhibit; also recorded: not an inhibitor
5 | N[C@@H](Cc1ccc(O)cc1)C(=O)N[C@@H](CS)C(=O)O [YC, reference compound] (H-Tyr-Cys-OH; N-terminus and C-terminus assumed) | – | – | Solubility in water / aqueous buffers (in words) [5]: difficult to dissolve in aqueous buffers
6 | N[C@@H](Cc1ccc(O)cc1)C(=O)O [Tyr, tyrosine] | accelerated and enhanced | increased | Effect on MPO HOCl production at equimolar concentration (in words) [2]: little, if any effect; Effect on MPO HOCl production at equimolar concentration (in words) ([2]; listed as Tyrosine): little if any effect
7 | CC(=O)N[C@@H](CCCCN)C(=O)N[C@@H](Cc1ccccc1)C(=O)N[C@@H](CS)C(N)=O [KFC, N-acetyl Lysylphenylalanylcysteine amid] (Ac-Lys-Phe-Cys-NH2) | increased the lag phase and delayed, but did not totally inhibit | – | Dose-dependent effect on MPO-catalyzed HOCl production (in words) [2]: weaker inhibitor
